Measured values from PMC4821887, “Identification of chemicals that mimic transcriptional changes associated with autism, brain aging and neurodegeneration” (Nature Communications, 2016).

Columns and labels:
[1] = system: mouse cortical neuron-enriched cultures; test: RNA-seq transcriptional screen with hierarchical clustering and cluster membership; assay type: cell-based; conditions: 24 h at non-toxic concentration; hierarchical clustering of 5,121 variably expressed genes
Method: Cultures were treated with the non-cytotoxic dose of each chemical, by exchanging half of the original medium with chemicals at 2 × concentration in prewarmed feeding medium, on DIV 7 for 24 h in 12-well plates at a density of 5 × 10^5 cells per well. RNA was isolated using RNeasy plus mini kit (Cat. #74134, Qiagen). RNA yield and quality were determined using a Nanodrop 1000 Spectrophotometer (Thermo Scientific). Samples were further assessed for quality using either an Agilent Bioanalyzer 2100 or TapeStation 2200 to obtain a RIN. RIN values exceeding 7 were used for sequencing. RNA samples were used to generate and barcode complementary DNA libraries using the TruSeq RNA Library Preparation Kit at the UNC High Throughput Sequencing Facility. Pools of 24 multiplexed samples were sequenced per lane on an Illumina HiSeq 2500 using 50-bp paired-end reads.
RNA-seq reads were filtered using TagDust and aligned to the reference mouse genome (mm9) with TopHat using default parameters. Reads aligning to ribosomal RNA genes were removed. Transcript abundance was estimated by computing Reads per kilobase per million mapped reads (RPKM) using RefSeq gene models aggregated by gene symbol. For differential expression analyses, raw counts over RefSeq exons were used, and then were compared across samples using DESeq[62].
RPKMs for all RefSeq genes and all samples were filtered such that a given gene had >90% of samples with RPKM >0 and gene length exceeded 500 bp. RPKMs were then log10-transformed, quantile-normalized, median-centred, and the effects due to culture or sequencing batch were removed using a mixed model analysis of variance. This batch correction step was performed on individual experiments rather than chemical–vehicle ratios to reduce the effects due to variations in culture composition as well as batch-to-batch variations at the level of sequencing. Genes were then median-centred again, and filtered such that their s.d. exceeded 0.1. Chemical replicates were then combined using the median. Classes of chemicals were then discovered in two ways. First, we performed hierarchical clustering using average linkage and Pearson correlation distance measures. The boundaries of the discovered classes from clustering were set by computing pairwise Spearman correlations for all samples. A given cluster had to have at least three members with the minimum pairwise Spearman correlation coefficient exceeding 0.2, though cluster members often exceeded a correlation of 0.6 (Supplementary Fig. 5c,d). Seven chemical clusters were discovered, however one was removed due to failing to have a positive silhouette width, a metric of cluster robustness. These definitions enabled the three positive control topoisomerase inhibitors to form a cohesive group of chemicals with known structural and functional similarity (cluster 5). None of the culture or sequencing batches contributed to the formation of any one of the final six clusters (Supplementary Fig. 4).

[2] = system: mitochondrial superoxide in cortical neurons; test: Mitochondrial superoxide detection (MitoSOX Red live-cell imaging); assay type: cell-based, mouse; conditions: 2 h treatment, MitoSOX, vincristine 500 µM in Supplementary Fig. 10b
cortical neurons = test: Soma morphology (proportion of cells with altered soma morphology) in live-cell imaging; assay type: cell-based, mouse; conditions: 2 h treatment, vincristine 500 µM in Supplementary Fig. 10c
purified tubulin = test: Tubulin polymerization assay (cell-free, BK011P); assay type: biochemical; conditions: 37 °C, fluorescence over 60 min, equimolar doses

In the case of `CSC1=N[C@@](C)(c2ccccc2)C(=O)N1Nc1ccccc1` [fenamidone], the “Chemical cluster assigned by gene expression” value [1] is reported as “cluster 2”, the “Mitochondrial superoxide (O2−) production” value [2] is reported as “dose dependent” and the “Mitochondrial superoxide (O2−) production” value ([2]; listed as Fenamidone) is reported as “concentration-dependent increase”. The “Soma swelling / aberrant cell morphology” value (cortical neurons) was “dose dependent”, the “Soma swelling / aberrant cell morphology” value (cortical neurons; listed as Fenamidone) was “swelling of neuronal soma” and the “Effect on tubulin polymerization” value (purified tubulin) was “did not impair”.
